HELM strings list units from the 5' end as sugar, base in round brackets, then linkage (d deoxyribose, r ribose, m 2'-O-methyl, p phosphodiester). Strings are as the collection lists them; they lack the last nucleoside at the 3' end of the tested compound. [moe] = 2'-O-(2-methoxyethyl) (MOE); [sp] = phosphorothioate linkage; [m5C] = 5-methylcytosine
Molecular target: GFAP
Assay: mouse, dose not given
Conditions: ASO

Substance	3 h FOB score
RNA1{[moe]([m5C])[sp].[moe]([m5C])p.[moe]([m5C])p.[moe](T)p.[moe]([m5C])[sp].d(T)[sp].d(T)[sp].d([m5C])[sp].d([m5C])[sp].d(T)[sp].d([m5C])[sp].d([m5C])[sp].d(A)[sp].d(G)[sp].d([m5C])[sp].[moe]([m5C])p.[moe](G)p.[moe]([m5C])[sp].[moe](G)}$$$$ (last 3' nucleoside missing)	5 score 0-7
RNA1{[moe]([m5C])[sp].[moe]([m5C])p.[moe]([m5C])p.[moe]([m5C])p.[moe](T)[sp].d(T)[sp].d(T)[sp].d([m5C])[sp].d(T)[sp].d([m5C])[sp].d(T)[sp].d([m5C])[sp].d([m5C])[sp].d(T)[sp].d(G)[sp].[moe](T)p.[moe](T)p.[moe](T)[sp].[moe]([m5C])}$$$$ (last 3' nucleoside missing)	2 score 0-7
RNA1{[moe]([m5C])[sp].[moe]([m5C])p.[moe]([m5C])p.[moe]([m5C])p.[moe](T)[sp].d([m5C])[sp].d(T)[sp].d(T)[sp].d([m5C])[sp].d([m5C])[sp].d(T)[sp].d([m5C])[sp].d([m5C])[sp].d(A)[sp].d(G)[sp].[moe]([m5C])p.[moe]([m5C])p.[moe](G)[sp].[moe]([m5C])}$$$$ (last 3' nucleoside missing)	3 score 0-7
RNA1{[moe]([m5C])[sp].[moe]([m5C])p.[moe]([m5C])p.[moe]([m5C])p.[moe]([m5C])[sp].d(T)[sp].d([m5C])[sp].d(T)[sp].d(A)[sp].d(T)[sp].d([m5C])[sp].d([m5C])[sp].d([m5C])[sp].d(T)[sp].d([m5C])[sp].[moe]([m5C])p.[moe]([m5C])p.[moe](A)[sp].[moe](G)}$$$$ (last 3' nucleoside missing)	0 score 0-7

From the OligoGym collection
